Values after ≈ are worked out from the molar mass of the structure shown. Where two headings read alike, the source gives them in different places.
Columns and labels:
[1] = test system: K. pneumoniae NVT1001 ΔramRΔompK35/36 mutant and its revertants; assay: Etest MIC, ΔramRΔompK35/36 mutant and its revertants (Table 7); format: cell-based; settings: Klebsiella pneumoniae
Excerpt: The allelic-exchange method was used to restore the wild-type gene in the K. pneumoniae NVT1001 mutants with constructed chromosome-mediated resistance mechanisms, as described by Tsai et al.^19 Briefly, a DNA fragment of the entire wild-type gene sequence along with flanking regions was amplified from K. pneumoniae NVT1001 using PCR with specific primers. The resulting PCR fragment was digested and then cloned into pUT-KB. For homologous recombination, this plasmid was transformed into E. coli S17-1 λpir^23 via electroporation and mobilized into the K. pneumoniae NVT1001 mutant via conjugation. […] After incubation in 20 mL BHI broth for 6 hours at 37° C. in the absence of kanamycin, the fully grown cultures were spread onto LB agar plates supplemented with 10% sucrose. After the double crossover occurred, the sucrose-resistant and kanamycin-susceptible colonies were selected, and the restoration of the wild-type gene was confirmed via DNA sequencing.
(§1) The MICs of antibiotics were determined using the Etest (Biodisk AB, Sweden) according to the manufacturer's instructions. The MICs from the Etest, which fall between standard two-fold dilutions, were rounded up to the next highest two-fold value. The MICs of ceftazidime and cefotaxime against K. pneumoniae NVT1001 harbouring the pACYC177 plasmid with blaOXA-48 were further determined using a broth microdilution test according to the recommendations of the CLSI,^25 and the results were interpreted according to the breakpoints established by the CLSI in 2017.^25 Meanwhile, due to the lack of CLSI breakpoints in 2016 and 2017, the results for cephalothin were interpreted according to the breakpoints established by the CLSI in 2015,^26 and the results for moxifloxacin were interpreted according to the breakpoints established by the EUCAST in 2017.^27

[2] = test system: K. pneumoniae NVT1001 strains with Sul/Dfr plasmids; assay: Etest MIC of folate pathway inhibitors, OmpK35/36 loss, ΔramR and/or drug-resistant target enzyme (Table 15); format: cell-based, Klebsiella pneumoniae; settings: Klebsiella pneumoniae
Procedure: DNA fragments of the resistance genes along with their flanking regions were amplified from clinical plasmids via PCR with specific primer pairs. The resulting PCR fragments were digested and then cloned into the plasmid pACYC177 or pACYC184. The resulting plasmids were then transformed into K. pneumoniae strain NVT1001 via electroporation. The recombinant bacteria were plated onto LB agar plates containing kanamycin (50 mg/L) or chloramphenicol (50 mg/L), and the presence of the cloned gene was confirmed via PCR and DNA sequencing.
as §1

[3] = test system: K. pneumoniae NVT1001 and its ΔompK35/36 and/or ΔramR mutants; assay: Etest MIC, OmpK35/36 loss and AcrAB-TolC overexpression (ΔramR) strains (Table 6); format: cell-based, Klebsiella pneumoniae
Procedure: as §1

[4] = Klebsiella pneumoniae, Δ35, ΔompK35 mutant
[5] = Klebsiella pneumoniae, Δ35/36, ΔompK35/36 mutant
[6] = Klebsiella pneumoniae, Δ36, ΔompK36 mutant
[7] = Klebsiella pneumoniae, ΔramR mutant
[8] = Klebsiella pneumoniae, ΔramRΔ35, ΔramRΔompK35 mutant
[9] = Klebsiella pneumoniae, ΔramRΔ35/36, ΔramRΔompK35/36 mutant
[10] = Klebsiella pneumoniae, ΔramRΔ36, ΔramRΔompK36 mutant
[11] = ΔramRΔ35/36, ΔramRΔompK35/36 mutant

Cc1cc(NS(=O)(=O)c2ccc(N)cc2)no1 [Sulfamethoxazole]
MIC ([1]; ΔramRΔompK35/36::ompK35/36 revertant): > 1020 µg/mL | MIC ([1]; ΔramRΔompK35/36::ompK35 revertant): > 1020 µg/mL | MIC ([1]; ΔramRΔompK35/36::ompK36 revertant): > 1020 µg/mL | MIC ([1]; ΔramRΔompK35/36::ramR revertant): > 1020 µg/mL | MIC ([1]; ΔramRΔompK35/36::ramR::ompK35/36 revertant): 256 µg/mL | MIC ([1]; ΔramRΔompK35/36::ramR::ompK35 revertant): > 1020 µg/mL | MIC ([1]; ΔramRΔompK35/36::ramR::ompK36 revertant): 256 µg/mL | MIC ([1]; ΔramRΔompK35/36 mutant): > 1020 µg/mL | MIC ([2]; DfrA1 on pACYC177, WT (NVT1001), read-out: MIC): 256 µg/mL | MIC ([2]; DfrA1 on pACYC177, ΔompK35/36 mutant): > 1020 µg/mL | MIC ([2]; DfrA1 on pACYC177, ΔompK35 mutant): > 1020 µg/mL | MIC ([2]; DfrA1 on pACYC177, ΔompK36 mutant): > 1020 µg/mL | MIC ([2]; DfrA1 on pACYC177, ΔramR mutant): > 1020 µg/mL | MIC ([2]; DfrA1 on pACYC177, ΔramRΔompK35/36 mutant): > 1020 µg/mL | MIC ([2]; DfrA1 on pACYC177, ΔramRΔompK35 mutant): > 1020 µg/mL | MIC ([2]; DfrA1 on pACYC177, ΔramRΔompK36 mutant): > 1020 µg/mL | MIC ([2]; DfrA16 on pACYC177, WT (NVT1001), read-out: MIC): 256 µg/mL | MIC ([2]; DfrA16 on pACYC177, ΔompK35/36 mutant): > 1020 µg/mL | MIC ([2]; DfrA16 on pACYC177, ΔompK35 mutant): > 1020 µg/mL | MIC ([2]; DfrA16 on pACYC177, ΔompK36 mutant): > 1020 µg/mL | MIC ([2]; DfrA16 on pACYC177, ΔramR mutant): > 1020 µg/mL | MIC ([2]; DfrA16 on pACYC177, ΔramRΔompK35/36 mutant): > 1020 µg/mL | MIC ([2]; DfrA16 on pACYC177, ΔramRΔompK35 mutant): > 1020 µg/mL | MIC ([2]; DfrA16 on pACYC177, ΔramRΔompK36 mutant): > 1020 µg/mL | MIC ([2]; Sul1 on pACYC177, WT (NVT1001), read-out: MIC): > 1020 µg/mL | MIC ([2]; Sul1 on pACYC177, ΔompK35/36 mutant): > 1020 µg/mL | MIC ([2]; Sul1 on pACYC177, ΔompK35 mutant): > 1020 µg/mL | MIC ([2]; Sul1 on pACYC177, ΔompK36 mutant): > 1020 µg/mL | MIC ([2]; Sul1 on pACYC177, ΔramR mutant): > 1020 µg/mL | MIC ([2]; Sul1 on pACYC177, ΔramRΔompK35/36 mutant): > 1020 µg/mL | MIC ([2]; Sul1 on pACYC177, ΔramRΔompK35 mutant): > 1020 µg/mL | MIC ([2]; Sul1 on pACYC177, ΔramRΔompK36 mutant): > 1020 µg/mL | MIC ([2]; Sul2 on pACYC177, WT (NVT1001), read-out: MIC): > 1020 µg/mL | MIC ([2]; Sul2 on pACYC177, ΔompK35/36 mutant): > 1020 µg/mL | MIC ([2]; Sul2 on pACYC177, ΔompK35 mutant): > 1020 µg/mL | MIC ([2]; Sul2 on pACYC177, ΔompK36 mutant): > 1020 µg/mL | MIC ([2]; Sul2 on pACYC177, ΔramR mutant): > 1020 µg/mL | MIC ([2]; Sul2 on pACYC177, ΔramRΔompK35/36 mutant): > 1020 µg/mL | MIC ([2]; Sul2 on pACYC177, ΔramRΔompK35 mutant): > 1020 µg/mL | MIC ([2]; Sul2 on pACYC177, ΔramRΔompK36 mutant): > 1020 µg/mL | MIC ([2]; no supplemental plasmid, WT (NVT1001), read-out: MIC): 256 µg/mL | MIC ([2]; no supplemental plasmid, ΔompK35/36 mutant): > 1020 µg/mL | MIC ([2]; no supplemental plasmid, ΔompK35 mutant): 256 µg/mL | MIC ([2]; no supplemental plasmid, ΔompK36 mutant): > 1020 µg/mL | MIC ([2]; no supplemental plasmid, ΔramR mutant): > 1020 µg/mL | MIC ([2]; no supplemental plasmid, ΔramRΔompK35/36 mutant): > 1020 µg/mL | MIC ([2]; no supplemental plasmid, ΔramRΔompK35 mutant): > 1020 µg/mL | MIC ([2]; no supplemental plasmid, ΔramRΔompK36 mutant): > 1020 µg/mL | MIC ([3]; Klebsiella pneumoniae, WT, NVT1001): 256 µg/mL (≈ 1010 µM) | MIC [3, 4]: 256 µg/mL (≈ 1010 µM) | MIC [3, 5]: > 1020 µg/mL | MIC [3, 6]: > 1020 µg/mL | MIC [3, 7]: > 1020 µg/mL | MIC [3, 8]: > 1020 µg/mL | MIC [3, 9]: > 1020 µg/mL | MIC [3, 10]: > 1020 µg/mL

NC[C@H]1O[C@H](O[C@H]2[C@H](O)[C@@H](O[C@H]3O[C@H](CO)[C@@H](O)[C@H](N)[C@H]3O)[C@H](N)C[C@@H]2N)[C@H](N)C[C@@H]1O [Tobramycin]
MIC ([3]; Klebsiella pneumoniae, WT, NVT1001, read-out: MIC): 0.5 µg/mL (≈ 1.07 µM) | MIC [3, 4]: 0.5 µg/mL (≈ 1.07 µM) | MIC [3, 5]: 0.5 µg/mL (≈ 1.07 µM) | MIC [3, 6]: 0.5 µg/mL (≈ 1.07 µM) | MIC [3, 7]: 0.5 µg/mL (≈ 1.07 µM) | MIC [3, 8]: 0.5 µg/mL (≈ 1.07 µM) | MIC [3, 9]: 1 µg/mL (≈ 2.14 µM) | MIC [3, 10]: 0.5 µg/mL (≈ 1.07 µM)

Colistin
MIC ([3]; WT, NVT1001): 1 µg/mL | MIC ([3]; Δ35, ΔompK35 mutant): 1 µg/mL | MIC ([3]; Δ35/36, ΔompK35/36 mutant): 1 µg/mL | MIC ([3]; Δ36, ΔompK36 mutant): 1 µg/mL | MIC ([3]; ΔramR mutant): 1 µg/mL | MIC ([3]; ΔramRΔ35, ΔramRΔompK35 mutant): 1 µg/mL | MIC [3, 11]: 1 µg/mL | MIC ([3]; ΔramRΔ36, ΔramRΔompK36 mutant): 1 µg/mL

Gentamicin
MIC ([3]; WT, NVT1001): 0.5 µg/mL | MIC ([3]; Δ35, ΔompK35 mutant): 0.5 µg/mL | MIC ([3]; Δ35/36, ΔompK35/36 mutant): 0.5 µg/mL | MIC ([3]; Δ36, ΔompK36 mutant): 0.5 µg/mL | MIC ([3]; ΔramR mutant): 0.5 µg/mL | MIC ([3]; ΔramRΔ35, ΔramRΔompK35 mutant): 0.25 µg/mL | MIC [3, 11]: 0.5 µg/mL | MIC ([3]; ΔramRΔ36, ΔramRΔompK36 mutant): 0.5 µg/mL

Polymyxin B
MIC ([3]; WT, NVT1001): 2 µg/mL | MIC ([3]; Δ35, ΔompK35 mutant): 2 µg/mL | MIC ([3]; Δ35/36, ΔompK35/36 mutant): 2 µg/mL | MIC ([3]; Δ36, ΔompK36 mutant): 2 µg/mL | MIC ([3]; ΔramR mutant): 1 µg/mL | MIC ([3]; ΔramRΔ35, ΔramRΔompK35 mutant): 1 µg/mL | MIC [3, 11]: 1 µg/mL | MIC ([3]; ΔramRΔ36, ΔramRΔompK36 mutant): 2 µg/mL

Source: patent publication US10760110B2, “Antibiotic testing and screening system” (priority 2017, dated 2020)
